Converted amounts (≈) assume the structure as drawn. Like-named read-outs stand apart in the source and are kept apart here.
What was measured:
S. faecalis A20688 = assay: Minimum Inhibitory Concentration, tube dilution; assay type: cell-based; conditions: Enterococcus faecalis, A20688, overnight 37° C.; table 6; read-out: MIC
P. vulgaris A21559 = assay: Minimum Inhibitory Concentration, tube dilution; assay type: cell-based; conditions: Proteus vulgaris, A21559, overnight 37° C.; table 6
S. aureus A-9537 = assay: Minimum Inhibitory Concentration, tube dilution; assay type: cell-based; conditions: Staphylococcus aureus, table 6, read-out: MIC
E. coli A15119 = assay: Minimum Inhibitory Concentration, tube dilution; assay type: cell-based; conditions: Escherichia coli, A15119, overnight 37° C.; table 6
S. marcescens A20019 = assay: Minimum Inhibitory Concentration, tube dilution; assay type: cell-based; conditions: Serratia marcescens, A20019, overnight 37° C.; table 6
P. aeruginosa A21213 = assay: Minimum Inhibitory Concentration, tube dilution; assay type: cell-based; conditions: Pseudomonas aeruginosa, A21213, overnight 37° C.; table 6; read-out: MIC
[1] = test system: S. aureus A-9606 (Pen-res.); assay: Minimum Inhibitory Concentration, tube dilution; assay type: cell-based; conditions: Staphylococcus aureus, Pen-res; table 6
P. mirabilis A-9900 = assay: Minimum Inhibitory Concentration, tube dilution; assay type: cell-based; conditions: Proteus mirabilis, A9900, overnight 37° C.; table 6
E. coli A20341-1 = assay: Minimum Inhibitory Concentration, tube dilution; assay type: cell-based; conditions: Escherichia coli, A203411, overnight 37° C.; table 6
S. pyogenes A-9604 = assay: Minimum Inhibitory Concentration, tube dilution; assay type: cell-based; conditions: Streptococcus pyogenes, A9604, overnight 37° C.; table 6
S. pneumoniae A-9585 = assay: Minimum Inhibitory Concentration, tube dilution; assay type: cell-based; conditions: Streptococcus pneumoniae, A9585, overnight 37° C.; table 6
P. aeruginosa A-9843A = assay: Minimum Inhibitory Concentration, tube dilution; assay type: cell-based; conditions: Pseudomonas aeruginosa, A9843A, overnight 37° C.; table 6; read-out: MIC
B. fragilis A22696 = assay: Minimum Inhibitory Concentration, tube dilution; assay type: cell-based; conditions: Bacteroides fragilis, overnight 37° C., table 6, read-out: MIC
P. aeruginosa A9843A = assay: animal or person; assay type: in vivo, mice; conditions: Pseudomonas aeruginosa, in Mus musculus, im, read-out: PD50 /treatment
From the text: The PD50 (dose in mg/kg required to give protection to 50% of the infected mice) is indicated.

K. pneumoniae A-9664 = assay: Minimum Inhibitory Concentration, tube dilution; assay type: cell-based; conditions: Klebsiella pneumoniae, A9664, overnight 37° C.; table 6
B. fragilis A22862 = assay: Minimum Inhibitory Concentration, tube dilution; assay type: cell-based; conditions: Bacteroides fragilis, overnight 37° C., table 6
[2] = Half-life in phosphate buffer pH 7.4; assay type: physicochemical
Procedure: To a solution of p-nitrobenzyl 3-[2-(1-pyridinium)ethylthio)]-6α[1-(R)-hydroxyethyl]-7-oxo-1-azabicyclo(3.2.0)hept-2-ene-carboxylate diphenylphosphate (0.16 g, 0.22 mmol) in wet tetrahydrofuran (10mL) was added ether (10mL), potassium phosphate monobasic-sodium hydroxide buffer pH 7.4 (16 mL, 0.05 M) and 10% palladium on charcoal (0.16 g). The resulting mixture was hydrogenated under 40 psi for 1 h at 25° C. The two phases were separated and the organic phase was extracted with water (2×3 mL). The aqeuous solutions were combined, washed with ether (2×10 ml) and poured on top of a column (1.5×6.2 cm) pf μ-bondapak C-18 after the traces of organic solvents have been removed under vacuum. Elution of the column with water gave after lyophylization of the appropriate fractions a yellowish powder 0.062 g (84%), ir (KBr) .nu.max : 3700-3000 (OH), 1755 (C--O of β-lactam), 1630 (pyridinium), 1590 cm^-1 (carboxylate), ^1 Hmr (D2 O): 1.22 (3H, d, J=6.4 Hz, CH3 CHOH), 2.92 (d, J=9.1 Hz, H-4), 2.97 (d, J=9.1 Hz, H-4), 3.20 (dd, J=2.5 Hz, J=6.1 Hz, H-6), 3.44 (t, J=6.0 Hz, CH2 S), 3.93 (dd, J=9.1 Hz, J=2.5 Hz, H-5), 4.82 (t, J=6.0 Hz, CH2 N^+), 8.04 (m, Hm of pyridinium), 8.5 (m, Hp of pyridinium), 8.82 (dd, J=3.2. Hz, J=1.1 Hz, Ho of pyridinium), uv (H2 O) λ max : 259 (ε5800), 296 (ε7030) mμ, .tau.1/2 =13.5 h (measured at a concentration of 10^-4 M in phosphate buffer pH 7.4 at 36.8° C.).

E. cloacae A9659 = assay: Minimum Inhibitory Concentration, tube dilution; assay type: cell-based; conditions: Enterobacter cloacae, A9659, overnight 37° C.; table 6; read-out: MIC
P. rettgeri A22424 = assay: Minimum Inhibitory Concentration, tube dilution; assay type: cell-based; conditions: Providencia rettgeri, overnight 37° C., table 6, read-out: MIC

Compound: CSc1n(C)cc[n+]1CCSC1=C(C(=O)[O-])N2C(=O)[C@H]([C@@H](C)O)[C@H]2C1 [Example 13, (5R, 6S)-3-[2-(2-methylthio-3-methylimidazolio)ethyl-thio]-6-[1-(R)-hydroxyethyl]-7-oxo-1-azabicyclo[3.2.0]hept-2-ene-2-carboxylate]
- MIC (S. faecalis A20688): 0.5 µg/mL (≈ 1.3 µM)
- MIC (P. vulgaris A21559): 0.03 µg/mL (≈ 0.0782 µM)
- MIC (S. aureus A-9537; A9537, 50% serum): 0.03 µg/mL (≈ 0.0782 µM)
- MIC (S. aureus A-9537; A9537, overnight 37° C.): 0.008 µg/mL (≈ 0.0209 µM)
- MIC (E. coli A15119): 0.03 µg/mL (≈ 0.0782 µM)
- MIC (S. marcescens A20019): 0.06 µg/mL (≈ 0.156 µM)
- MIC (P. aeruginosa A21213): 2 µg/mL (≈ 5.22 µM)
- MIC [1]: 0.03 µg/mL (≈ 0.0782 µM)
- MIC (P. mirabilis A-9900): 0.03 µg/mL (≈ 0.0782 µM)
- MIC (E. coli A20341-1): 0.03 µg/mL (≈ 0.0782 µM)
- MIC (S. pyogenes A-9604): 0.002 µg/mL (≈ 0.00522 µM)
- MIC (S. pneumoniae A-9585): 0.001 µg/mL (≈ 0.00261 µM)
- MIC (P. aeruginosa A-9843A): 32 µg/mL (≈ 83.4 µM)

Compound: CC(C[n+]1ccccc1)SC1=C(C(=O)[O-])N2C(=O)[C@H]([C@@H](C)O)[C@H]2C1 (single isomer, unassigned) [Ex. 15 (cmp. "A")]
- MIC (P. vulgaris A21559): 0.03 µg/mL (≈ 0.0861 µM)
- MIC (S. marcescens A20019): 0.06 µg/mL (≈ 0.172 µM)
- MIC (P. aeruginosa A21213): 1 µg/mL (≈ 2.87 µM)
- MIC (B. fragilis A22696): 0.25 µg/mL (≈ 0.718 µM)
- ED50 (P. aeruginosa A9843A): 3.1 mg/kg
- MIC (E. coli A20341-1): 0.03 µg/mL (≈ 0.0861 µM)
- MIC (K. pneumoniae A-9664): 0.06 µg/mL (≈ 0.172 µM)
- MIC (B. fragilis A22862): 0.13 µg/mL (≈ 0.373 µM)

Compound: CSc1ccc[n+](CCSC2=C(C(=O)[O-])N3C(=O)[C@H]([C@@H](C)O)[C@H]3C2)c1 [Example 11, (5R,6S)-3-[[2-(3-methylthiopyridinio)ethyl]thio]-6-[1-(R)-hydroxyethyl]-7-oxo-1-azabicyclo[3.2.0]hept-2-ene2-carboxylate]
- MIC (S. faecalis A20688): 0.25 µg/mL (≈ 0.657 µM)
- MIC (P. vulgaris A21559): 0.03 µg/mL (≈ 0.0788 µM)
- MIC (S. aureus A-9537; A9537, 50% serum): 0.03 µg/mL (≈ 0.0788 µM)
- MIC (S. aureus A-9537; A9537, overnight 37° C.): 0.004 µg/mL (≈ 0.0105 µM)
- half-life ([2]; phosphate buffer, pH 7.4, 36.8° C., read-out: t1/2 (half-life) (converted)): 20 h
- MIC (E. coli A15119): 0.03 µg/mL (≈ 0.0788 µM)
- MIC (S. marcescens A20019): 0.06 µg/mL (≈ 0.158 µM)
- MIC (P. aeruginosa A21213): 1 µg/mL (≈ 2.63 µM)
- MIC [1]: 0.008 µg/mL (≈ 0.021 µM)
- ED50 (P. aeruginosa A9843A): 2.4 mg/kg
- MIC (E. coli A20341-1): 0.03 µg/mL (≈ 0.0788 µM)
- MIC (K. pneumoniae A-9664): 0.06 µg/mL (≈ 0.158 µM)
- MIC (E. cloacae A9659): 0.06 µg/mL (≈ 0.158 µM)
- MIC (S. pyogenes A-9604): 0.001 µg/mL (≈ 0.00263 µM)
- MIC (S. pneumoniae A-9585): 0.001 µg/mL (≈ 0.00263 µM)
- MIC (P. rettgeri A22424): 0.25 µg/mL (≈ 0.657 µM)
- MIC (B. fragilis A22862): 0.06 µg/mL (≈ 0.158 µM)
- MIC (P. aeruginosa A-9843A): 4 µg/mL (≈ 10.5 µM)

Compound: COc1ccc[n+](CCSC2=C(C(=O)[O-])N3C(=O)[C@H]([C@@H](C)O)[C@H]3C2)c1 [Example 10, 3-[2-(3-methoxy-1-pyridinium)ethylthio]-6α-[1'-(R)-hydroxyethyl]-7-oxo-1-azabicyclo(3.2.0)-hept-2-ene-2-carboxylate]
- MIC (P. vulgaris A21559): 0.06 µg/mL (≈ 0.165 µM)
- MIC (S. aureus A-9537; A9537, 50% serum): 0.06 µg/mL (≈ 0.165 µM)
- MIC (S. aureus A-9537; A9537, overnight 37° C.): 0.008 µg/mL (≈ 0.022 µM)
- half-life ([2]; 0.1 m phosphate buffer, pH 7.4, T1/2 (half-life)): 20 h
- MIC (E. coli A15119): 0.03 µg/mL (≈ 0.0823 µM)
- MIC (P. aeruginosa A21213): 1 µg/mL (≈ 2.74 µM)
- MIC [1]: 0.016 µg/mL (≈ 0.0439 µM)
- ED50 (P. aeruginosa A9843A): 1.8 mg/kg
- MIC (K. pneumoniae A-9664): 0.06 µg/mL (≈ 0.165 µM)
- MIC (S. pyogenes A-9604): 0.002 µg/mL (≈ 0.00549 µM)
- MIC (S. pneumoniae A-9585): 0.002 µg/mL (≈ 0.00549 µM)
- MIC (P. aeruginosa A-9843A): 4 µg/mL (≈ 11 µM)

From patent US4642341A, “Carbapenem antibiotics” (priority 1985, dated 1987)
